Measurements: paper PMC5487684, “Safety, Pharmacokinetics, and Antiviral Activity of a Novel HIV Antiviral, ABX464, in Treatment-Naive HIV-Infected Subjects in a Phase 2 Randomized, Controlled Study” (Antimicrobial Agents and Chemotherapy, 2017)

Test system: HIV-infected subjects
Assay: Safety and tolerability (TEAEs, ECG, laboratory) after repeated oral administration, phase 2a study
Assay type: in vivo, human
Experimental: Participants were assigned to one of eight groups; each group (with one exception) included eight subjects receiving either ABX464 (n = 6) or the corresponding placebo (n = 2) according to a randomization code. […] In the present study with HIV-infected subjects, the first dose administered was 25 mg, given once or 3 times a day over a 2- to 3-week period. This initial dose was therefore considered safe for assessment of the safety and tolerability of ABX464 after repeated oral administrations in subjects infected by HIV and determination of the potential effect on the HIV viral load.
The final dosing protocol for each of the eight groups was as follows: group 1, 25 mg every 3 days for 2 to 3 weeks under fasted conditions; group 2, 25 mg once a day (q.d.) for 2 to 3 weeks under fasted conditions; group 3, 50 mg once a day for 2 to 3 weeks under fasted conditions; group 4, 50 mg 3 times a day (t.i.d.) for 4 weeks under fed conditions; group 5, 75 mg once a day for 2 weeks under fed conditions; group 6, 100 mg once a day for 2 to 3 weeks under fasted conditions; group 7, 150 mg every 3 days for 2 to 3 weeks under fed conditions; and group 8, 150 mg once a day for 2 weeks under fed conditions. Per the study protocol, the treatment period was defined as 2 weeks. […] The decision to proceed to the next highest dose was determined by the data and safety monitoring board after review of the laboratory safety data, vital signs, ECGs, and adverse event reports from the group receiving the current dose after 2 weeks of treatment.
Subjects were hospitalized from the day prior to the first dose to at least the morning of day 2. They were orally dosed with 25-mg capsules of ABX464 with 240 ml water under fed or fasted conditions. According to the group, subjects were dosed with 1, 2, 3, 4, or 6 capsules to deliver 25 mg, 50 mg, 75 mg, 100 mg, or 150 mg product, respectively, or the same number of placebo capsules.
Safety assessments and laboratory tests were carried out according to the schedules described in Table S4 for groups dosed every day, every 3 days, and 3 times a day. Follow-up visits were scheduled for 7 days after the last dose and subsequently once every week in order to assess the elimination of the main ABX464 metabolite and to assess the viral load. Follow-up visits were terminated when the virus load was within 0.5 log of the baseline value or after 3 follow-up visits, whichever came first. Prior to the statistical analyses, AEs were coded using the Medical Dictionary for Regulatory Activities (MedDRA dictionary; last available version) in order to be tabulated by system organ class (SOC) and preferred term (PT). The AEs were analyzed according to the treatment emergence phase from the first study drug administration on day 1 up to 48 h after the last study drug administration. The number and percentage of subjects with at least one TEAE were tabulated by SOC and PT for each group and dose. The number of occurrences of TEAEs was also analyzed in the same way by SOC and PT for each group and dose, by grade of severity for each group and dose, and by level of causality to the study drug for each group and dose.

[1] = Group 5 (n = 6), 75 mg q.d., fed, Mild
[2] = Group 5 (n = 6), 75 mg q.d., fed, Moderate
[3] = Group 6 (n = 6), 100 mg q.d., fasted, Mild
[4] = Group 6 (n = 6), 100 mg q.d., fasted, Moderate
[5] = Group 7 (n = 6), 150 mg every 3 days, fed, Mild

FC(F)(F)Oc1ccc(Nc2ccc3cccc(Cl)c3n2)cc1 [ABX464]
Subjects experiencing at least one TEAE: Arthralgia [1]: 0 (0.0) No. (%) | Subjects experiencing at least one TEAE: Back pain [1]: 0 (0.0) No. (%) | Subjects experiencing at least one TEAE: Diarrhea [1]: 1 (16.7) No. (%) | Subjects experiencing at least one TEAE: Flank pain [1]: 0 (0.0) No. (%) | Subjects experiencing at least one TEAE: Gastrointestinal disorders [1]: 5 (83.3) No. (%) | Subjects experiencing at least one TEAE: Headache [1]: 5 (83.3) No. (%) | Subjects experiencing at least one TEAE: Injury, poisoning, and procedural complications [1]: 0 (0.0) No. (%) | Subjects experiencing at least one TEAE: Musculoskeletal and connective tissue disorders [1]: 0 (0.0) No. (%) | Subjects experiencing at least one TEAE: Nausea [1]: 3 (50.0) No. (%) | Subjects experiencing at least one TEAE: Neck pain [1]: 0 (0.0) No. (%) | Subjects experiencing at least one TEAE: Nervous system disorders [1]: 5 (83.3) No. (%) | Subjects experiencing at least one TEAE: Pain in extremity [1]: 0 (0.0) No. (%) | Subjects experiencing at least one TEAE: Sciatica, back pain [1]: 0 (0.0) No. (%) | Subjects experiencing at least one TEAE: Skin abrasion [1]: 0 (0.0) No. (%) | Subjects experiencing at least one TEAE: Total [1]: 6 (100.0) No. (%) | Subjects experiencing at least one TEAE: Upper abdominal pain [1]: 0 (0.0) No. (%) | Subjects experiencing at least one TEAE: Vomiting [1]: 4 (66.7) No. (%) | Subjects experiencing at least one TEAE: Abdominal pain [2]: 0 (0.0) No. (%) | Subjects experiencing at least one TEAE: Arthralgia [2]: 0 (0.0) No. (%) | Subjects experiencing at least one TEAE: Back pain [2]: 0 (0.0) No. (%) | Subjects experiencing at least one TEAE: Diarrhea [2]: 0 (0.0) No. (%) | Subjects experiencing at least one TEAE: Flank pain [2]: 0 (0.0) No. (%) | Subjects experiencing at least one TEAE: Gastrointestinal disorders [2]: 1 (16.7) No. (%) | Subjects experiencing at least one TEAE: Headache [2]: 0 (0.0) No. (%) | Subjects experiencing at least one TEAE: Injury, poisoning, and procedural complications [2]: 0 (0.0) No. (%) | Subjects experiencing at least one TEAE: Musculoskeletal and connective tissue disorders [2]: 0 (0.0) No. (%) | Subjects experiencing at least one TEAE: Nausea [2]: 1 (16.7) No. (%) | Subjects experiencing at least one TEAE: Neck pain [2]: 0 (0.0) No. (%) | Subjects experiencing at least one TEAE: Nervous system disorders [2]: 0 (0.0) No. (%) | Subjects experiencing at least one TEAE: Pain in extremity [2]: 0 (0.0) No. (%) | Subjects experiencing at least one TEAE: Sciatica, back pain [2]: 0 (0.0) No. (%) | Subjects experiencing at least one TEAE: Skin abrasion [2]: 0 (0.0) No. (%) | Subjects experiencing at least one TEAE: Total [2]: 1 (16.7) No. (%) | Subjects experiencing at least one TEAE: Upper abdominal pain [2]: 0 (0.0) No. (%) | Subjects experiencing at least one TEAE: Vomiting [2]: 0 (0.0) No. (%) | Subjects experiencing at least one TEAE: Abdominal pain [3]: 0 (0.0) No. (%) | Subjects experiencing at least one TEAE: Arthralgia [3]: 0 (0.0) No. (%) | Subjects experiencing at least one TEAE: Back pain [3]: 0 (0.0) No. (%) | Subjects experiencing at least one TEAE: Diarrhea [3]: 0 (0.0) No. (%) | Subjects experiencing at least one TEAE: Flank pain [3]: 0 (0.0) No. (%) | Subjects experiencing at least one TEAE: Gastrointestinal disorders [3]: 2 (33.3) No. (%) | Subjects experiencing at least one TEAE: Headache [3]: 5 (83.3) No. (%) | Subjects experiencing at least one TEAE: Injury, poisoning, and procedural complications [3]: 0 (0.0) No. (%) | Subjects experiencing at least one TEAE: Musculoskeletal and connective tissue disorders [3]: 0 (0.0) No. (%) | Subjects experiencing at least one TEAE: Nausea [3]: 0 (0.0) No. (%) | Subjects experiencing at least one TEAE: Neck pain [3]: 0 (0.0) No. (%) | Subjects experiencing at least one TEAE: Nervous system disorders [3]: 5 (83.3) No. (%) | Subjects experiencing at least one TEAE: Pain in extremity [3]: 0 (0.0) No. (%) | Subjects experiencing at least one TEAE: Sciatica, back pain [3]: 0 (0.0) No. (%) | Subjects experiencing at least one TEAE: Skin abrasion [3]: 0 (0.0) No. (%) | Subjects experiencing at least one TEAE: Total [3]: 6 (100.0) No. (%) | Subjects experiencing at least one TEAE: Upper abdominal pain [3]: 2 (33.3) No. (%) | Subjects experiencing at least one TEAE: Vomiting [3]: 0 (0.0) No. (%) | Subjects experiencing at least one TEAE: Abdominal pain [4]: 0 (0.0) No. (%) | Subjects experiencing at least one TEAE: Arthralgia [4]: 0 (0.0) No. (%) | Subjects experiencing at least one TEAE: Back pain [4]: 0 (0.0) No. (%) | Subjects experiencing at least one TEAE: Diarrhea [4]: 0 (0.0) No. (%) | Subjects experiencing at least one TEAE: Flank pain [4]: 0 (0.0) No. (%) | Subjects experiencing at least one TEAE: Gastrointestinal disorders [4]: 1 (16.7) No. (%) | Subjects experiencing at least one TEAE: Headache [4]: 0 (0.0) No. (%) | Subjects experiencing at least one TEAE: Injury, poisoning, and procedural complications [4]: 0 (0.0) No. (%) | Subjects experiencing at least one TEAE: Musculoskeletal and connective tissue disorders [4]: 0 (0.0) No. (%) | Subjects experiencing at least one TEAE: Nausea [4]: 0 (0.0) No. (%) | Subjects experiencing at least one TEAE: Neck pain [4]: 0 (0.0) No. (%) | Subjects experiencing at least one TEAE: Nervous system disorders [4]: 0 (0.0) No. (%) | Subjects experiencing at least one TEAE: Pain in extremity [4]: 0 (0.0) No. (%) | Subjects experiencing at least one TEAE: Sciatica, back pain [4]: 0 (0.0) No. (%) | Subjects experiencing at least one TEAE: Skin abrasion [4]: 0 (0.0) No. (%) | Subjects experiencing at least one TEAE: Total [4]: 3 (50.0) No. (%) | Subjects experiencing at least one TEAE: Upper abdominal pain [4]: 1 (16.7) No. (%) | Subjects experiencing at least one TEAE: Vomiting [4]: 0 (0.0) No. (%) | Subjects experiencing at least one TEAE: Abdominal pain [5]: 0 (0.0) No. (%) | Subjects experiencing at least one TEAE: Arthralgia [5]: 1 (16.7) No. (%) | Subjects experiencing at least one TEAE: Back pain [5]: 0 (0.0) No. (%) | Subjects experiencing at least one TEAE: Diarrhea [5]: 0 (0.0) No. (%)
